Laboratory results from patent US20250059217A1, “HETEROCYCLIC COMPOUNDS AND METHODS OF PREPARATION THEREOF” (priority 2021, published 2025).

How the values were obtained:
other receptor sites [1] = target: other receptor sites (Homo sapiens, UniProt P34969); experiment: Functional activity at other receptor sites relative to psilocin (Table 5), further receptors; conditions: read-out: 5-HT7 EC50, 5-HT7 receptor, compared with psilocin
other receptor sites [2] = target: other receptor sites (Homo sapiens, UniProt Q13639); experiment: as above; conditions: read-out: 5-HT4 EC50, 5-HT4 receptor, compared with psilocin
Chain of other receptor sites (Homo sapiens, UniProt Q13639) (Q13639 whole entry): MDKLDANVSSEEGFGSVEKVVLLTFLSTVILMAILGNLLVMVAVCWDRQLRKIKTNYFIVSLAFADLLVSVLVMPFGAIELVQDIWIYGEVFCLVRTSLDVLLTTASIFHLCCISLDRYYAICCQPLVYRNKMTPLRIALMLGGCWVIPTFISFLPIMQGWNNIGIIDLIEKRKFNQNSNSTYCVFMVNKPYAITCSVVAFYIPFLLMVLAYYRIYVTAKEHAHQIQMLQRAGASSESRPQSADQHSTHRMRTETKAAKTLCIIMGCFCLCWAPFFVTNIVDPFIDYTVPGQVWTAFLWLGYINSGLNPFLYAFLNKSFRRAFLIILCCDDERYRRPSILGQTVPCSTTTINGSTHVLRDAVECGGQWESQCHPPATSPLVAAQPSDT

other receptor sites [3] = target: other receptor sites (Homo sapiens, UniProt P28566); experiment: as above; conditions: read-out: 5-HT1E EC50, 5-HT1E receptor, compared with psilocin
Chain of other receptor sites (Homo sapiens, UniProt P28566) (P28566 whole entry): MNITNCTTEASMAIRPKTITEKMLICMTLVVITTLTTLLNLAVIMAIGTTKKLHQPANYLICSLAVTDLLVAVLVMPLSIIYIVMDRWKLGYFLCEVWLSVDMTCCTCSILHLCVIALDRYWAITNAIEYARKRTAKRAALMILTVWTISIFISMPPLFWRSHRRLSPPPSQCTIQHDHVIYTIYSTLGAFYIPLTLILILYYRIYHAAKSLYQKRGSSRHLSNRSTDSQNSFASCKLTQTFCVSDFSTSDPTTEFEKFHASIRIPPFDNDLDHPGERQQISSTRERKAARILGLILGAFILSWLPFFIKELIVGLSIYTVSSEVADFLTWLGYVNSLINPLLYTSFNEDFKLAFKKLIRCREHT

other receptor sites [4] = target: other receptor sites (Homo sapiens, UniProt P28221); experiment: as above; conditions: read-out: 5-HT1D EC50, 5-HT1D receptor, compared with psilocin
Chain of other receptor sites (Homo sapiens, UniProt P28221) (P28221 whole entry): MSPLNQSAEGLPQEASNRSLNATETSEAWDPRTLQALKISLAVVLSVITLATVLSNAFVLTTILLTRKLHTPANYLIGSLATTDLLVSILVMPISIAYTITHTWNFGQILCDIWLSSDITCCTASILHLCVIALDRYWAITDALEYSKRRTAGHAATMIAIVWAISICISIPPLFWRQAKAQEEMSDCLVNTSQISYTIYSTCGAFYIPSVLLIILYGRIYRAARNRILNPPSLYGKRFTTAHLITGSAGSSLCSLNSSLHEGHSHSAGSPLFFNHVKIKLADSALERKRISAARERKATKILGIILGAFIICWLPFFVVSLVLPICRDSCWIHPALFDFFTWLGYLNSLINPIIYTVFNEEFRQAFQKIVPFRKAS

other receptor sites [5] = experiment: as above; conditions: compared with psilocin; for 5-HT1A Eff %: 5-HT1A receptor; for 5-HT1B Eff %: 5-HT1B receptor; for 5-HT1D Eff %: 5-HT1D receptor; for 5-HT1E Eff %: 5-HT1E receptor; for 5-HT4 Eff %: 5-HT4 receptor; for 5-HT5A Eff %: 5-HT5A receptor; for 5-HT7 Eff %: 5-HT7 receptor
other receptor sites [6] = target: T1, other receptor sites (Homo sapiens, UniProt P08908); experiment: as above; conditions: read-out: 5-HT1A EC50, 5-HT1A receptor, compared with psilocin
T1 sequence (P08908 1-422): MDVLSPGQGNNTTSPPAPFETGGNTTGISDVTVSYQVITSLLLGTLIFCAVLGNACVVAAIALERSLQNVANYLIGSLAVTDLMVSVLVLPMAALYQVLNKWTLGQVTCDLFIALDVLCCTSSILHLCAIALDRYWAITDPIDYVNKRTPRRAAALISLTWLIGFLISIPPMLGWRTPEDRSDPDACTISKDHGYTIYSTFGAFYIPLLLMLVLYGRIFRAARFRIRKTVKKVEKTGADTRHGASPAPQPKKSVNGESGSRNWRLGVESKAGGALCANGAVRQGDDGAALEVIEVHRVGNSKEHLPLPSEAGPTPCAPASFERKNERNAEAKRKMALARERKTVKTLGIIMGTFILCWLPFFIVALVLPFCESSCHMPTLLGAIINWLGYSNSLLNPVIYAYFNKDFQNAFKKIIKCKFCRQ

other receptor sites [7] = target: other receptor sites (Homo sapiens, UniProt P28222); experiment: as above; conditions: read-out: 5-HT1B EC50, 5-HT1B receptor, compared with psilocin
Chain of other receptor sites (Homo sapiens, UniProt P28222) (P28222 whole entry): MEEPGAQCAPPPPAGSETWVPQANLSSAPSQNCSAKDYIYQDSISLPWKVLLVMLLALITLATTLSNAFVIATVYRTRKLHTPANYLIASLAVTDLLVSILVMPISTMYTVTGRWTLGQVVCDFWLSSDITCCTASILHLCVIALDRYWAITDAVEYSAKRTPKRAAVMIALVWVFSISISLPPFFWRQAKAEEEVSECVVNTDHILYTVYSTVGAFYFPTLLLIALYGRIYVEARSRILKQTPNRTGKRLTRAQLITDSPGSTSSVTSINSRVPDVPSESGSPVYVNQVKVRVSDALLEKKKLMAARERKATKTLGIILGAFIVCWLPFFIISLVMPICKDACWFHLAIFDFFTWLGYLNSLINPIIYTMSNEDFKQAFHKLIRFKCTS

other receptor sites [8] = target: other receptor sites (Homo sapiens, UniProt P47898); experiment: as above; conditions: read-out: 5-HT5A EC50, 5-HT5A receptor, compared with psilocin
Chain of other receptor sites (Homo sapiens, UniProt P47898) (P47898 whole entry): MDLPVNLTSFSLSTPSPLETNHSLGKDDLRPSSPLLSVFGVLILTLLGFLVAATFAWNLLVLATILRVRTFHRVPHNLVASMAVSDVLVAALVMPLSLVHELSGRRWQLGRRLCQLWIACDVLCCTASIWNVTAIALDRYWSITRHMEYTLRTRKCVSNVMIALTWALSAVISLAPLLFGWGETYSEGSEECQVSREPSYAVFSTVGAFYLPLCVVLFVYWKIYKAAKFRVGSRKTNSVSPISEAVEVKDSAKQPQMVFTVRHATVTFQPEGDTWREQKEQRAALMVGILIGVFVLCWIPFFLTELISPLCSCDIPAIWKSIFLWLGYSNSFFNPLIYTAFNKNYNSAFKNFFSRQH

5-HT6 receptor = 5-HT6 receptor (Homo sapiens, UniProt P50406); experiment: Functional activity at other receptor sites relative to psilocin (Table 5), 5-HT6; conditions: for 5-HT6 Eff %: Table 5, 5-HT6 receptor, compared with psilocin
Chain of 5-HT6 receptor (P50406 whole entry): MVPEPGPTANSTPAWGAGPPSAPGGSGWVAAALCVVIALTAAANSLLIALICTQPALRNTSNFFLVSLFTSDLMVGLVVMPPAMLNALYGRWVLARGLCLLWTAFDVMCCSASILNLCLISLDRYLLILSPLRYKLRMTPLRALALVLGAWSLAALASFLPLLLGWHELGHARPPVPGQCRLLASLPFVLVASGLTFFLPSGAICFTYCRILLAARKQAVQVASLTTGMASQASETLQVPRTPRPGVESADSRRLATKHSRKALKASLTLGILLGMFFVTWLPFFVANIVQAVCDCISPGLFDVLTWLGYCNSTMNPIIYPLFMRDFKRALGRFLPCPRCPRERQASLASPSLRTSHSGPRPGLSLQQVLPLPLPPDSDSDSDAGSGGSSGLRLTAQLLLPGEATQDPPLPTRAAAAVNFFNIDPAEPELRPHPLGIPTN

5-HT2C receptor = target: T2, 5-HT2C receptor (Homo sapiens, UniProt P28335); experiment: cell-based; conditions: Table 5, 5-HT2C receptor, compared with psilocin
T2 construct: expressed in transfected cells; host or cells: HEK293T
T2 sequence (P28335 33-458): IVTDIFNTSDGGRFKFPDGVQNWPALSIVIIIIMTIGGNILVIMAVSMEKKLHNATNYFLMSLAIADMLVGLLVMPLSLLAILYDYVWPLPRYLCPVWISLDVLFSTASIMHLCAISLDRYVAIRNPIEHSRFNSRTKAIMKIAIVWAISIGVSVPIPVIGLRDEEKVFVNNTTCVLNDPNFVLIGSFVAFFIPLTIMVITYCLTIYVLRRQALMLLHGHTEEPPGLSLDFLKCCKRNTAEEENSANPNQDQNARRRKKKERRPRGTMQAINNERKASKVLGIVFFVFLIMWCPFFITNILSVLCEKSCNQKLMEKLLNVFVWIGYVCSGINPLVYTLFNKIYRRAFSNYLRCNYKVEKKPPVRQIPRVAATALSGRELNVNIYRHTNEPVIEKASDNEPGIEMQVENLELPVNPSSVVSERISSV

5-HT1F receptor = target: T3, 5-HT1F receptor (Homo sapiens, UniProt P30939); experiment: Functional activity at other receptor sites relative to psilocin (Table 5), 5-HT1F; conditions: for 5-HT1F Eff %: Table 5, 5-HT1F receptor, compared with psilocin
T3 sequence (P30939 1-366): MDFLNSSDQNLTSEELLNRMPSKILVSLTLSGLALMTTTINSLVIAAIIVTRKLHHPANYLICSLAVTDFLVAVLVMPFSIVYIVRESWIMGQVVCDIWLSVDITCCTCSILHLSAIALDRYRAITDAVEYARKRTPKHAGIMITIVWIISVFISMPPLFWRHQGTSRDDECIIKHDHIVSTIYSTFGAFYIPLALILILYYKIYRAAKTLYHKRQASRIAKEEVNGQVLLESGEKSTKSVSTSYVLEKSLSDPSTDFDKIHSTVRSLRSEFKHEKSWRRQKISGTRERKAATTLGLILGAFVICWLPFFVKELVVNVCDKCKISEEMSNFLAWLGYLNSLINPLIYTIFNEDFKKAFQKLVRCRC

5-HT2A receptor = target: T4, 5-HT2A receptor (Homo sapiens, UniProt P28223); experiment: Serotonin receptor 5-HT2 functional assay (Gq dissociation BRET or Gq-dependent calcium flux), 5-HT2A; type: cell-based; conditions: Table 5, 5-HT2A receptor, compared with psilocin
T4 construct: expressed in transfected cells; host or cells: HEK293T
T4 sequence (P28223 whole entry): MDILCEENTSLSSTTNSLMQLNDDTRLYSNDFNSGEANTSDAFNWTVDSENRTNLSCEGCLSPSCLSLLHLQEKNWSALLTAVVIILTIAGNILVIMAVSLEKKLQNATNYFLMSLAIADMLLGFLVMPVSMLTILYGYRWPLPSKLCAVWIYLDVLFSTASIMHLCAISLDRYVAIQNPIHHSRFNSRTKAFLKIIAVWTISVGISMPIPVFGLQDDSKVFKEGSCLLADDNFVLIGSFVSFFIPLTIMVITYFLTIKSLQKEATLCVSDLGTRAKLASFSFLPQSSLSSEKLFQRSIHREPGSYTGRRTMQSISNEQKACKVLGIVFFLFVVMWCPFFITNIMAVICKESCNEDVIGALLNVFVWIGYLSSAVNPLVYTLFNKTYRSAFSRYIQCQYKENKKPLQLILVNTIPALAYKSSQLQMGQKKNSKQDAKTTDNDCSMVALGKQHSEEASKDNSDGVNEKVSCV

5-HT2B receptor = target: T5, 5-HT2B receptor (Homo sapiens, UniProt P41595); experiment: Serotonin receptor 5-HT2 functional assay (Gq dissociation BRET or Gq-dependent calcium flux), 5-HT2B; type: cell-based; conditions: Table 5, 5-HT2B receptor, compared with psilocin
T5 construct: expressed in transfected cells; host or cells: HEK293T
T5 sequence (P41595 whole entry): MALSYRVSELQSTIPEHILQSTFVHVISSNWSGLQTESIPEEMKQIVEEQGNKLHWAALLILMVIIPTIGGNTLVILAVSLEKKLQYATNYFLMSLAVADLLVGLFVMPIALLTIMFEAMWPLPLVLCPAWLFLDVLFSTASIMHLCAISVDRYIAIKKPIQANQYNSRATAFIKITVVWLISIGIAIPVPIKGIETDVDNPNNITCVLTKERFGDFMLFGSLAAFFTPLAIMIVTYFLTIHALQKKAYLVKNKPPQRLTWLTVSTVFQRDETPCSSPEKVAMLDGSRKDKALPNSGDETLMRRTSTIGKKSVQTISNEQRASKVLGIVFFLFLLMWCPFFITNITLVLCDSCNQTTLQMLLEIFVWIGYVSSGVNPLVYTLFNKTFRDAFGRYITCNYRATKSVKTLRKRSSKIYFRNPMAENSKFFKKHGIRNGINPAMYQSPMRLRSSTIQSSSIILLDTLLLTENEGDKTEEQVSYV

Chain of other receptor sites (Homo sapiens, UniProt P34969) (P34969 whole entry): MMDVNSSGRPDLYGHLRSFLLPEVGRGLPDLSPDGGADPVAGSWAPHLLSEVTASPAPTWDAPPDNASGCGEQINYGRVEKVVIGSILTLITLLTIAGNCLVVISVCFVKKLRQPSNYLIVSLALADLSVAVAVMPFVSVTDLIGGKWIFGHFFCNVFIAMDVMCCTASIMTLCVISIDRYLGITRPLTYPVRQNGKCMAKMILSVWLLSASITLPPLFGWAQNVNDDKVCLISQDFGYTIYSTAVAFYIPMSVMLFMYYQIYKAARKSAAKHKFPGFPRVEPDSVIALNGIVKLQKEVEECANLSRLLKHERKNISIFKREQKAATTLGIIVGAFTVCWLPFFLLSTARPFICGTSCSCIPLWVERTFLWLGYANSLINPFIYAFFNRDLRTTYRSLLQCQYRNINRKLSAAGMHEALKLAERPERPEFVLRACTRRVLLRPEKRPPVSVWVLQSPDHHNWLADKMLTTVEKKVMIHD

Structure (SMILES) | EC50 (other receptor sites [1]) | EC50 (other receptor sites [2]) | 5-HT1A Eff % (other receptor sites [5]) | 5-HT1B Eff % (other receptor sites [5]) | 5-HT1D Eff % (other receptor sites [5]) | 5-HT1E Eff % (other receptor sites [5]) | 5-HT4 Eff % (other receptor sites [5]) | 5-HT5A Eff % (other receptor sites [5]) | 5-HT7 Eff % (other receptor sites [5]) | EC50 (5-HT6 receptor) | 5-HT6 Eff % (5-HT6 receptor) | EC50 (5-HT1F receptor) | 5-HT1F Eff % (5-HT1F receptor) | 5-HT2A Eff % (5-HT2A receptor) | 5-HT2B Eff % (5-HT2B receptor) | other results
Cc1ccc(O)c2c(CCN(C)C)c[nH]c12 [drawing 38] | 5.2 nM | 257 nM | 76% | 105% | 112% | 102% | 13% | 20% | 3.4% | 9 nM | 48% | 23 nM | 92% | 73% | 16% | EC50 (other receptor sites [3]): 167 nM; EC50 (other receptor sites [4]): 749 nM; EC50 (other receptor sites [6]): 12.6 µM; EC50 (other receptor sites [7]): 309 nM; EC50 (other receptor sites [8]): 23 µM; 5-HT2C Eff % (5-HT2C receptor): 79%; EC50 (5-HT2C receptor; read-out: 5-HT2C EC50): 6.9 nM; EC50 (5-HT2A receptor; read-out: 5-HT2A EC50): 66 nM; EC50 (5-HT2B receptor; 5-HT2B EC50 (nM)): 3.6 nM
CN(C)CCc1c[nH]c2cccc(O)c12 [drawing 39] | 525 nM | 563 nM | 93% | 94% | 102% | 90% | 81% | 48% | 86% | 183 nM | 74% | 9.3 nM | 93% | 82% | 63% | –
